US10030016B2 (Sunesis Pharmaceuticals, Inc., priority 2009, dated 2018)
Structures can show the parent of a compound that is named as a salt. Where two headings read alike, the source gives them in different places.

Legend:
PDK1 = PDK1 (Homo sapiens (Human), UniProt O15530); assay: PDK1 kinase assay (coupled PDK1/AKT/FAM-crosstide assay, IMAP fluorescence polarization); format: biochemical
Procedure, shortened: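 Inhibition is derived by 4-parameter fitting of ΔmP from an IMAP fluorescence polarization read of FAM-crosstide (100 nM) phosphorylation. The cascade ran 30 min at 25 °C with 40 μM ATP, using insect-cell GST-PDK1 51-359 (0.75 nM) driving 10 nM unphosphorylated AKT2 140-467-PIFtide fusion.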

[1] = test system: phospho-akt (Thr308) in PC-3 cells; assay: Inhibition of phospho-akt (Thr308) in PC-3 cells, MSD phospho-akt 308 ELISA kit; format: cell-based; details: Homo sapiens, 2 hours, no serum, read-out: EC50
Procedure, shortened: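 Serum-free 2 h compound exposure of overnight-seeded PC-3 cells, threefold dilution series; lysates analysed on blocked MSD plates (3% BSA) for Thr308-phosphorylated Akt, normalised between DMSO and 5 μM wortmannin wells.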

[2] = inhibition of P308 Akt in PC-3 cells using MSD
[3] = inhibition of phospo-PDK1 in vitro
[4] = inhibition of P308 Akt in PC-3 cells, MSD

PDK1, sequence (O15530 51-359): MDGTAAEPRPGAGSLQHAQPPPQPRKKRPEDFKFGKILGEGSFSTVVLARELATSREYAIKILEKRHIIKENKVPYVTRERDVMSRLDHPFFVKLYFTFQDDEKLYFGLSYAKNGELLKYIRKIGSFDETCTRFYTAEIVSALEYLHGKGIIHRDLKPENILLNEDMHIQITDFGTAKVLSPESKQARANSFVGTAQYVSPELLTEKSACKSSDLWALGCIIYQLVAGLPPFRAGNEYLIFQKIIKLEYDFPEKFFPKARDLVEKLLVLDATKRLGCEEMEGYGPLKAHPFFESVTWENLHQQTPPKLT

| IC50 (PDK1; inhibition of PDK1 in vitro) | EC50 [1, 2] | IC50 (PDK1; [3]) | EC50 [1, 4] | Structure (SMILES) |
| --- | --- | --- | --- | --- |
| 1000 to 5000 nM | > 10000 nM | – | – | Nc1n[nH]c2ncc(-c3ccc(CNc4ncc(C(F)(F)F)cc4C(=O)N[C@H](CO)c4ccc(Br)cc4)cc3)cc12 [Example 437, (S)-2-(4-(3-amino-1H-pyrazolo[3,4-b]pyridin-5-yl)benzylamino)-N-(1-(4-bromophenyl) 2-hydroxyethyl)-5-(trifluoromethyl)nicotinamide] |
| – | – | 100 to 1000 nM | 1000 to 10000 nM | O=C(NCc1ccc(F)c(F)c1)c1cccnc1NCc1ccc(-c2c[nH]c3ncncc23)s1 [Example 4.7, 2-(((5-(7H-pyrrolo[2,3-d]pyrimidin-5-yl)thiophen-2-yl)methyl)amino)-N-(3,4-difluorobenzyl)nicotinamide] |
| – | – | > 5000 nM | > 10000 nM | Nc1ncnc2ccc(-c3ccc(CNc4ncccc4C(=O)NCc4cc(F)ccc4C(F)(F)F)s3)cc12 [Example 3.12, 2-({[5-(4-aminoquinazolin-6-yl)thiophen-2-yl]methyl}amino)-N-[5-fluoro-2-(trifluoromethyl)benzyl]pyridine-3-carboxamide (TFA salt)] |
| – | – | 100 to 1000 nM | > 10000 nM | Nc1ncnc2ccc(-c3ccc(CNc4nccnc4C(=O)NCc4cccc(F)c4F)s3)cc12 [Example 3.74, 3-({[5-(4-aminoquinazolin-6-yl)thiophen-2-yl]methyl}amino)-N-(2,3-difluorobenzyl)pyrazine-2-carboxamide (TFA salt)] |
| – | – | < 100 nM | < 1000 nM | Nc1n[nH]c2ncc(-c3ccc(CNc4ncc(C(F)(F)F)cc4C(=O)N4CCc5cc(F)ccc54)cc3)cc12 [Example 30, (2-(4-(3-amino-1H-pyrazolo[3,4-b]pyridin-5-yl)benzylamino)-5-(trifluoromethyl)pyridin-3-yl)(5-fluoroindolin-1-yl)methanone] |
| – | – | < 100 nM | < 1000 nM | NC(=O)c1cnc(NCc2ccc(-c3ccc4ncnc(N)c4c3)s2)c(C(=O)NCc2ccc(F)c(F)c2)c1 [Ex. 7.24.1, 2-({[5-(4-aminoquinazolin-6-yl)thiophen-2-yl]methyl}amino)-N˜3˜-(3,4-difluorobenzyl)pyridine-3,5-dicarboxamide] |
| < 100 nM | < 1000 nM | – | – | C[C@H](NC(=O)c1cc(C#N)cnc1NCc1ccc(-c2cnc(N)c(N3CCNCC3)n2)cc1)c1ccc(F)cc1 [Example 191, 2-[4-(3′-Amino-3,4,5,6-tetrahydro-2H-[1,2′]bipyrazinyl-6′-yl)-benzylamino]-5-cyano-N-[(S)-1-(4-fluoro-phenyl)-ethyl]-nicotinamide] |
| – | – | < 100 nM | < 1000 nM | N#Cc1cnc(NCc2ccc(-c3cnc4[nH]nc(N)c4c3)cc2)c(C(=O)NCc2cncc(F)c2)n1 [Example 26, 3-(4-(3-amino-1H-pyrazolo[3,4-b]pyridin-5-yl)benzylamino)-6-cyano-N-((5-fluoropyridin-3-yl)methyl)pyrazine-2-carboxamide] |
| < 100 nM | < 1000 nM | – | – | N#Cc1cnc(NCc2ccc(-c3cnc4[nH]nc(N)c4c3)cc2)c(C(=O)NCc2cncc(F)c2)c1 [Example 311, 2-(4-(3-amino-1H-pyrazolo [3,4-b]pyridin-5-yl)benzylamino)-5-cyano-N-((5-fluoropyridin-3-yl)-5-methyl)nicotinamide] |
| < 100 nM | < 1000 nM | – | – | C[C@H](NC(=O)c1cc(C#N)cnc1NCc1ccc(-c2cnc(N)c(CCCCO)n2)cc1)c1ccc(F)cc1 [Example 90, 2-{4-[5-Amino-6-(4-hydroxy-butyl)-pyrazin-2-yl]-benzyl-amino}-5-cyano-N-[(S)-1-(4-fluoro-phenyl)-ethyl]-nicotinamide] |
| 100 to 1000 nM | 1000 to 10000 nM | – | – | O=C(NCc1ccc(F)c(F)c1)c1cc(C(F)(F)F)cnc1NCc1ccc(-c2cnc(NCCO)cn2)cc1 [Example 229, N-(3,4-difluorobenzyl)-2-(4-(5-(2-hydroxyethylamino)pyrazin-2-yl)benzylamino)-5-(trifluoromethyl)nicotinamide] |
| < 100 nM | < 1000 nM | – | – | C[C@H](NC(=O)c1cc(C(F)(F)F)cnc1NCc1ccc(-c2cnc3[nH]ncc3c2)cc1)c1ccc(F)c(F)c1 [Example 394, N-[(S)-1-(3,4-Difluoro-phenyl)-ethyl]-2-[4-(1H-pyrazolo [3,4-b]pyridin-5-yl)-benzylamino]-5-trifluoromethyl-nicotinamide] |

Second part, the compound before the results:

| Structure (SMILES) | IC50 (PDK1; inhibition of PDK1 in vitro) | EC50 [1, 2] | IC50 (PDK1; [3]) | EC50 [1, 4] |
| --- | --- | --- | --- | --- |
| Nc1ncc(-c2ccc(CNc3ncc(C(F)(F)F)cc3C(=O)Nc3ccc(F)cc3)cc2)nc1C(=O)N1CCNCC1 [Example 220, 2-{4-[5-Amino-6-(piperazine-1-carbonyl)-pyrazin-2-yl]-benzylamino}-N-(4-fluoro-phenyl)-5-trifluoromethyl-nicotinamide] | < 100 nM | 1000 to 10000 nM | – | – |
| C[C@H](NC(=O)c1nc(C#N)cnc1NCc1ccc(-c2cnc3[nH]c(=O)[nH]c3c2)cc1)c1ccc(F)c(F)c1 [Example 363, (S)-6-cyano-N-(1-(3,4-difluorophenyl)ethyl)-3-(4-(2-oxo-2,3-dihydro-1H-imidazo[4,5-b]pyridin-6-yl)benzylamino)-pyrazine-2-carboxamide] | < 100 nM | < 1000 nM | – | – |
| C[C@H](NC(=O)c1cc(C#N)cnc1NCc1ccc(-c2cnc(N)c(CCCCN3CCOCC3)n2)cc1)c1ccc(F)cc1 [Example 89, 2-{4-[5-Amino-6-(4-morpholin-4-yl-butyl)-pyrazin-2-yl]-benzyl-amino}-5-cyano-N-[(S)-1-(4-fluoro-phenyl)-ethyl]-nicotinamide] | < 100 nM | < 1000 nM | – | – |
| C[C@H](NC(=O)c1cccnc1NC/C=C/c1ccc2c(c1)NC(=O)/C2=C\c1cnc[nH]1)c1ccc(F)cc1 [Example 15.22, 2-((E)-3-((Z)-3-((1H-imidazol-5-yl)methylene)-2-oxoindolin-6-yl)allylamino)-N-((S)-1-(4-fluorophenyl)ethyl) nicotinamide] | – | – | < 100 nM | < 1000 nM |
| C[C@H](NC(=O)c1cc(C#N)cnc1NCc1ccc(-c2cnc(N)c(C(=O)N3CCNCC3)n2)cc1)c1ccc(F)cc1 [Example 221, 2-{4-[5-Amino-6-(piperazine-1-carbonyl)-pyrazin-2-yl]-benzylamino}-5-cyano-N-[(S)-1-(4-fluoro-phenyl)-ethyl]-nicotinamide] | < 100 nM | 1000 to 10000 nM | – | – |
| N#Cc1cnc(NCc2ccc(-c3cnc4[nH]nc(N)c4c3)cc2)c(C(=O)Nc2ccc(F)cc2)n1 [Example 29, 3-(4-(3-amino-1H-pyrazolo[3,4-b]pyridin-5-yl)benzylamino)-6-cyano-N-(4-fluorophenyl) pyrazine-2-carboxamide] | – | – | < 100 nM | < 1000 nM |
| CC(C)(C)Nc1ncnc2ccc(-c3ccc(CNc4ncccc4C(=O)NCc4ccc(F)c(F)c4)s3)cc12 [Example 4.23, N-(3,4-difluorobenzyl)-2-(((5-(4-(tert-butylamino)quinazolin-6-yl)thiophen-2-yl)methyl)amino) nicotinamide] | – | – | 1000 to 5000 nM | > 10000 nM |
| N#Cc1cnc(NCc2ccc(-c3c[nH]c4ncnc(N)c34)cc2)c(-c2nccs2)c1 [Example 352] | < 100 nM | > 10000 nM | – | – |
| C[C@H](NC(=O)c1cc(C#N)cnc1NCc1ccc(-c2cnc3[nH]ncc3c2)nc1)c1ccc(F)cc1 [Example 65, 5-Cyano-N-[(S)-1-(4-fluoro-phenyl)-ethyl]-2-{[6-(1H-pyrazolo[3,4-b]pyridin-5-yl)-pyridin-3-ylmethyl]-amino}-nicotinamide] | < 100 nM | < 1000 nM | – | – |
